Earlier results in patent US11065330B2, “Induction of antigen-specific tolerance by peripheral phagocytosis” (PLS-Design GmbH, priority 2014, dated 2021).
“Also recorded” adds a separate entry of the source. Like-named read-outs stand apart in the source and are kept apart here. Where no end group is shown, it is not given here.

Columns and labels:
murine CD22 = murine CD22 (Mus musculus, UniProt P35329)
[1] = for solubility in 1:5 solution of ethanol:PBS: 1:5 ethanol:PBS, pH 7.2
[2] = test system: OVA-induced allergic asthma in mice; details: 10 ng with 100 μg OVA immunotherapy
EAE model = details: i.p. 5 μg/kg every 2 days
[3] = test system: Lyme arthritis and collagen-induced arthritis in mice; details: diet, 20 ng/mouse/day
[4] = test system: mouse model of peritonitis; details: 100 ng dose
[5] = test system: human polymorphonuclear leukocyte (PMN) transendothelial migration; details: read-out: EC50, reduction of PMN transendothelial migration
IL-4 gene transcription = details: read-out: concentration for 50% inhibition
NF-kappa B translocation = details: read-out: concentration for 50% inhibition
phagocytes = details: for maximal migration of phagocytes, increase: at about 100 nM
[6] = test system: isolated rat cardiomyocytes; design: dose or concentration left out as unconfirmed; details: preincubation 2-3 hours, GSM or exogenous NAC
cystic fibrosis = details: oral 600 mg to 1000 mg three times daily, 4 weeks
[7] = test system: ovalbumin-specific IgE and IgG1 responses
[8] = test system: intestinal ischaemia/reperfusion injury model; details: 10 mg/kg i.v., rats
[9] = not given; remark: listed apart in the source
rheumatoid arthritis = details: three months, on methotrexate
psoriasis = details: more than 10 years clinical use
[10] = for time detectable in serum by HPLC: rats
calcium metabolism = details: compared to 1,25-(OH)2D3
[11] = test system: OVA-induced allergy in mice; details: topical calcipotriol, then transcutaneous OVA with CpG adjuvant
asthma exacerbation = details: six months, budesonide 800 μg/d and cholecalciferol 500 IU
[12] = test system: alternative pathway of complement activation (C3) in sera from rats; details: read-out: IC50 of haemolytic activity
[13] = test system: alternative pathway of complement activation (C3) in sera from guinea pigs; details: read-out: IC50 of haemolytic activity
[14] = test system: alternative pathway of complement activation (C3) in sera from mice; details: read-out: IC50 of haemolytic activity
[15] = test system: baboon model of Escherichia coli sepsis; details: 10 mg/kg i.v. bolus then 60 μg/kg/min infusion
[16] = human, in vivo
[17] = test system: OVA-induced allergic airway inflammation; details: intranasal 10 μg every fourth day, 3 weeks
[18] = test system: IL-4/IL-13-mediated effects in murine model of allergy; details: 50 μg pre and post OVA, then 30 μg twice a day, day 1 to 8
[19] = 1.0 g/liter in drinking water, 8 days

murine CD22, sequence (P35329 22-868): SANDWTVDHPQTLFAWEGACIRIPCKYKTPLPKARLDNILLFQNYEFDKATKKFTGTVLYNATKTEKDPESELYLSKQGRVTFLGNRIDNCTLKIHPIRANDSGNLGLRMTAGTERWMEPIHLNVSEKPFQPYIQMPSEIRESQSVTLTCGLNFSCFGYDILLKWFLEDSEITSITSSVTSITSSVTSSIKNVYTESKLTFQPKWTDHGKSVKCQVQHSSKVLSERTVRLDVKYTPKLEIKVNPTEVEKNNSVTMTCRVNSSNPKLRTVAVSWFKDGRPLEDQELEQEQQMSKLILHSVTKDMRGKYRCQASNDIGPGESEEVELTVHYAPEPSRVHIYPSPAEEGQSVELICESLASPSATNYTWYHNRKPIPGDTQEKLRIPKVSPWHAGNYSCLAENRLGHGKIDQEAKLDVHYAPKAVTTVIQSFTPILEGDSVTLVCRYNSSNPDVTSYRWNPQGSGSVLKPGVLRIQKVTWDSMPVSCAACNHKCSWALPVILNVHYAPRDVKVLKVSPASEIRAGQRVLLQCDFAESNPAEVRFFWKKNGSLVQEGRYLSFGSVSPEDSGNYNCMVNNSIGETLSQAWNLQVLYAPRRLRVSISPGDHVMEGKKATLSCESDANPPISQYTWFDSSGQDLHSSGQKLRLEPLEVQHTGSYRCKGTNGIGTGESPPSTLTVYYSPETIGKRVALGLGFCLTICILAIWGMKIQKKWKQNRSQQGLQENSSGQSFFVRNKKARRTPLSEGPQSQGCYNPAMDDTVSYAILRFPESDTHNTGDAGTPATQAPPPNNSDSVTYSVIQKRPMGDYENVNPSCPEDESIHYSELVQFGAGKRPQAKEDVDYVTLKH

For “9-biphenylacetyl-N-glycolylneuraminic acid-α2-6-galactose-β1-4-N-acetylglucosamine-β-ethylamine [6′-^BPANeuGc]”, the “affinity for murine CD22, fold higher than natural ligand NeuGcα2-6Galβ1-4GlcNAc-β-ethylamine” value (murine CD22) is listed as 200 fold.

For `C=C1/C(=C\C=C2/CCC[C@]3(C)[C@@H]([C@H](C)CCCC(C)(C)O)CC[C@@H]23)C[C@@H](O)C[C@@H]1O` [1,25-(OH)2D3, 1α,25-dihydroxyvitamin D3], the “solubility in 1:5 solution of ethanol:PBS” value [1] is given as “approx. 0.15 mg/ml”, the solubility in ethanol [1] is given as “approx. 50 mg/ml” and the airway hyper-responsiveness [2] is given as “significantly inhibited airway hyper-responsiveness”. The diabetes development (NOD mice) was “prevented the development of diabetes; also recorded: prevented diabetes onset”, the “treated mice in which appearance of paralysis was prevented” value (EAE model) was 70% and the “progression of arthritis and hypercalcemia” value [3] was “effective in inhibiting the progression of arthritis without producing hypercalcemia”.

In the case of `CC/C=C\C[C@@H](O)/C=C/C=C\C=C\C=C\[C@@H](O)[C@@H](O)C/C=C\CCC(=O)O` [17(R)-Resolvin D1], the “maximal inhibition of leukocyte infiltration” value [4] is given as about 35% and the EC50 [5] is given as about 0.03 µM.

For `C=C1CC[C@H](O)C/C1=C/C=C1\CCC[C@]2(C)[C@@H]([C@H](C)CCCC(C)(C)O)CC[C@@H]12` [25-OH-D3], the “serum level to be kept to avoid toxicity” value (based on experiments in the rat) is listed as “below 250 ng/ml”, the “serum level at which toxicity occurs” value (rat, in vivo) is listed as at least 500 ng/mL and the adverse effects (multiple sclerosis; 1,000 to 40,000 IU/day) is listed as “no adverse effects”. The “number of new lesions by MRI” value (multiple sclerosis; oral 4,000-40,000 IU/day, 28 weeks) was “significant decrease in the number of new lesions”.

In the case of `CC(=O)Oc1ccccc1C(=O)O` [ASA, acetylsalicylic acid], the IC50 (IL-4 gene transcription) is given as about 1000 µM and the IC50 (NF-kappa B translocation) is given as about 3000 µM.

In the case of `Nc1ncnc2c1ncn2[C@@H]1O[C@H](COP(=O)(O)OP(=O)(O)OP(=O)(O)O)[C@@H](O)[C@H]1O` [ATP], the “concentration effecting maximal migration of phagocytes” value (phagocytes) is given as “about 100 nM” and the “maximal migration of phagocytes, increase” value (phagocytes) is given as “threefold”.

For `CSC[C@H](NC(=O)CC[C@H](N)C(=O)O)C(=O)NCC(=O)O` [GSM, S-Methylglutathione], the “protection against deleterious effects of TNF-alpha on contraction” value [6] is listed as “protected”.

In the case of `CC(=O)N[C@@H](CS)C(=O)O` [NAC, N-acetyl-L-cysteine], the “protection against deleterious effects of TNF-alpha on contraction” value [6] is given as “not protected”, the “cytotoxicity in resting T cells” value (peripheral blood T cells; 1 mM to 20 mM, 3 day period, seven donors) is given as “nontoxic” and the “T cell function and growth” value (peripheral blood T cells; 10 mM) is given as “effective enhancer of T cell function”. The “safety and efficacy of high doses” value (cystic fibrosis) was “safe and effective”, the “decrease of ovalbumin-specific IgE” value ([7]; 0.5 g/liter in drinking water) was about 30% and the “decrease of ovalbumin-specific IgG1” value ([7]; 0.5 g/liter in drinking water) was about 30%. For the same molecule, the “decrease of ovalbumin-specific IgE response” value [7, 19] was “more than 70%” and the “decrease of ovalbumin-specific IgG1 response” value [7, 19] was “more than 70%”.

In the case of `O=C([O-])c1ccccc1O.[Na+]` [SA, sodium salicylate], the solubility in water ([1]; 20° C.) is listed as 2000 µg/mL.

For `NC(N)=NCCC[C@H](NC(=O)COCC(c1ccccc1)c1ccccc1)C(=O)O` [SB290157], the blood pressure effect [8] is listed as “rapid and transient hypertension” and the “in vivo half-life” value [9] is listed as “short in vivo half-life”.

For `O=c1ccn([C@@H]2O[C@H](COP(=O)(O)OP(=O)(O)OP(=O)(O)O)[C@@H](O)[C@H]2O)c(=O)[nH]1` [UTP], the “concentration effecting maximal migration of phagocytes” value (phagocytes) is listed as “about 100 nM” and the “maximal migration of phagocytes, increase” value (phagocytes) is listed as “threefold”.

For `C=C1/C(=C\C=C2/CCC[C@]3(C)[C@@H]([C@H](C)CCCC(C)C)CC[C@@H]23)C[C@@H](O)C[C@@H]1O` [alfacalcidiol], the “patients going into remission” value (rheumatoid arthritis) is listed as 45% and the “patients with improvement of disease activity” value (rheumatoid arthritis) is listed as 89%.

For `C=C1/C(=C\C=C2/CCC[C@]3(C)[C@@H]([C@H](C)/C=C/[C@@H](O)C4CC4)CC[C@@H]23)C[C@@H](O)C[C@@H]1O` [calcipotriol], the “solubility in 1:5 solution of ethanol:PBS” value [1] is given as “approx. 0.15 mg/ml”, the solubility in ethanol [1] is given as “approx. 50 mg/ml” and the “systemic toxicity on topical use” value (psoriasis) is given as “without systemic toxicity”. For the same molecule, the “time detectable in serum by HPLC” value ([10]; i.v. 10 μg/kg) was “up to 5 min”, the “time detectable in serum by HPLC” value ([10]; i.v. 50 μg/kg) was “up to 10 min” and the “rate of clearance, times higher than for 1,25-(OH)2D3” value ([10]; rat, in vivo) was “approximately 140 times”. The “effect on calcium metabolism, times less than 1,25-(OH)2D3” value (calcium metabolism) was 100-200 times and the “antigen-specific CD8+ T cell priming” value [11] was “abolished antigen-specific CD8+ T cell priming”.

For `C=C1CC[C@H](O)C/C1=C/C=C1\CCC[C@]2(C)[C@@H]([C@H](C)CCCC(C)C)CC[C@@H]12` [cholecalciferol], the “children experiencing asthma exacerbation” value (asthma exacerbation) is listed as 17%.

For `CC[C@H](C)[C@H](N)C(=O)N[C@H]1CSSC[C@@H](C(=O)N[C@H](C(N)=O)[C@@H](C)O)NC(=O)[C@H](CCCN=C(N)N)NC(=O)[C@H](Cc2cnc[nH]2)NC(=O)[C@H](Cc2cnc[nH]2)NC(=O)CNC(=O)[C@H](Cc2c[nH]c3ccccc23)NC(=O)[C@H](CC(=O)O)NC(=O)[C@H](CCC(N)=O)NC(=O)[C@H](C(C)C)NC(=O)[C@H](C(C)C)NC1=O` [compstatin], the IC50 [12] is given as […], the IC50 [13] is given as […] and the IC50 [14] is given as […]. For the same molecule, the “procoagulant response and organ protection” value [15] was “decrease the procoagulant response”.

In the case of `CC/C=C\C[C@H](O)/C=C/C=C\C=C\C=C\[C@@H](O)[C@@H](O)C/C=C\CCC(=O)O` [resolvin D1], the EC50 [5] is listed as about 0.03 µM.

In the case of “MT-hsp65: 65 kDa heat shock protein of Mycobacterium tuberculosis”, the diabetes development (NOD/Lt mice; single i.p. 50 μg emulsified in IFA) is given as “developed within 30 days after the treatment diabetes” and the diabetes development (NOD/Lt mice; single i.p. injection in PBS) is given as “did not cause the development of diabetes”.

In the case of PMX53, the safety and tolerability [16] is given as “safe and well tolerated” and the half-life ([9]; in vivo) is given as 1.17 h.

In the case of TFGLQLELT [nonapeptide 180-188], the “rats showing clinical symptoms of adjuvant arthritis during pretreatment” value (adjuvant arthritis; i.p. 100 μg in FIA, 35 days before induction) is given as “none of the rats” and the “rats completely protected against subsequently induced adjuvant arthritis” value (adjuvant arthritis; three times 100 μg in FIA before induction) is given as 11 out of 16.

In the case of vitamin D, the “relative risk of type 1 diabetes over the subsequent 30 years” value (type 1 diabetes; doses of exactly 50 μg/day) is given as 0.22 and the “relative risk of type 1 diabetes over the subsequent 30 years” value (type 1 diabetes; doses of over 50 μg/day (2000 IU/d) during infancy) is given as 0.14.

B1: Q116D/Y119D: murine IL-4 double mutant inhibiting IL-4/IL-13-mediated effects (protein, UniProt P07750 21-140, looked up, variant Q116D Y119D)
Interleukin-4: HIHGCDKNHLREIIGILNEVTGEGTPCTEMDVPNVLTATKNTTESELVCRASKVLRIFYLKHGKTPCLKKNSSVLMELQRLFRAFRCLDSSISCTMNESKSTSLKDFLESLKSIMDMDDS
For B1, the “outcome versus SIT with OVA only” value [17] is listed as “did not produce significantly different results” and the “humoral immune responses to OVA and allergic symptoms” value [18] is listed as “completely abrogated”.
